Laboratory results taken from publication PMC9606955, “In Vitro Activity of Essential Oils Distilled from Colombian Plants against Candida auris and Other Candida Species with Different Antifungal Susceptibility Profiles” (Molecules, 2022).
Converted amounts (≈) assume the structure as drawn.

How the values were obtained:
C. lusitaniae MUM 17.08 = assay: MIC, CLSI M27 broth microdilution; assay type: cell-based, Candida lusitaniae
From the text: (§1) The fungal strains used in this study were C. albicans ATCC 10231, C. albicans ATCC 64550, C. parapsilosis ATCC 22019, C. tropicalis ATCC 750, C. tropicalis ATCC 200956 (resistant to azoles and AMB), C. glabrata LMDM 34 (resistant to echinocandins), C. metapsilosis MUM 15.12, C. orthopsilosis MUM 17.13, C. lusitaniae MUM 17.08, C. krusei ATCC 6258 (Issatchenkia orientalis ATCC 6258), and C. auris CDC B11903. Additionally, nine clinical isolates were included: C. parapsilosis Synlab 406 (FLC-resistant) and eight C. auris isolates identified by MALDI-TOF MS (Bruker Daltonics, Bremen, Germany) according to Zhao et al.. These yeasts were cultured on Sabouraud Dextrose Agar (SDA; Sigma-Aldrich, St. Louis, MO, USA) for 24 h at 35 °C.
(§2) Antifungal susceptibility testing was performed according to Clinical and Laboratory Standards Institute M27, 4th Edition (CLSI standard M27, 4th Edition). Some modifications were applied for evaluation of the antifungal activity of EOs and terpenes. Initially, a screening was carried out to determine the antifungal activity of the EOs and of commercial terpenes. Stock concentrations of EOs and terpenes were prepared at 512 µg/mL and an inoculum of 2.5 × 10^3 CFU/mL of each yeast was prepared in RPMI 1640-MOPS (Sigma- Aldrich St. Louis, MO, USA). Thereafter, 100 µL of each stock solution of EOs or terpenes was dispensed in 96-well microdilution plates (Corning®, Costar®, NY, USA) and 100 µL of each yeast inoculum was added. […] Microdilution plates were incubated at 35 °C and, after 24 h, the presence or absence of growth was visually checked using a manual mirror viewer and then compared with the amount of growth in the control (no EO or terpene). Compounds able to inhibit yeast growth were tested to determine the minimal inhibitory concentration (MIC) as follows: 100 µL of 10 two-fold dilutions of the EOs or commercial terpenes was dispensed in 96-well microplates and the yeast inoculum was added. Final concentrations of the EOs or terpenes ranged from 0.5 µg/mL to 256 µg/mL. Microdilution plates were incubated at 35 °C for 24 h. MICs were visually determined at the lowest concentration that produced visual inhibition compared to the growth control. The assays were performed at least three times in duplicate on different days. The results were expressed as geometric means (GM) and ranges. As an antifungal susceptibility testing control, the activity of ITC and AMB against the reference strains C. krusei ATCC 6258 and C. parapsilosis ATCC 22019 was evaluated in all experiments following the CLSI standard M27, 4th Edition. It was mandatory that the MIC values remained in the accepted range.

[1] = system: C. parapsilosis Synlab 406; assay: MIC, CLSI M27 broth microdilution; assay type: cell-based, Candida parapsilosis
From the text: as §1, §2

Cytotoxicity, MTT assay = conditions: human, HaCaT keratinocyte cells
Protocol: Cells were cultured in Dulbecco’s Modified Eagle Medium (DMEM; Sigma-Aldrich, St. Louis, MO, USA) supplemented with 10% fetal bovine serum (Invitrogen, Carlsbad, CA, USA), 1% penicillin, streptomycin, and neomycin (Invitrogen, Carlsbad, CA, USA), and 1% L-glutamine (Invitrogen, Carlsbad, CA, USA) at 37 °C in a humidified atmosphere of 5% CO2. […] Afterwards, the culture medium was removed and 3-(4.5-dimethylthiazol-2-yl)-2.5-diphenyltetrazolium bromide (MTT) (Sigma-Aldrich, St. Louis, MO, USA) at 5 mg/mL was added at 37 °C for 2 h. Subsequently, DMSO was added to dissolve the formazan crystals. Finally, the absorbances were measured with a Multiskan SkyHigh Microplate Spectrophotometer (Thermo Fisher Scientific, Waltham, MA, USA) at λ = 570 nm. The CC50 values were obtained by linear regression analysis with concentration–response curves, which were performed with absorbance data using GraphPad Prism software (Prism 9.3.0, San Diego, CA, USA). The assays were conducted at two separate times in triplicate. The data were expressed as means.

C. auris = system: C. auris; set-up: method as in PMID 31980703; conditions: cited from earlier work
[2] = system: C. orthopsilosis MUM 17.13; assay: MIC, CLSI M27 broth microdilution; assay type: cell-based, Candida orthopsilosis; conditions: Lodderomyces orthopsilosis, MUM17.13, 24 h, read-out: GM MIC
From the text: as §1, §2

[3] = system: C. tropicalis ATCC 200956; assay: MIC, CLSI M27 broth microdilution; assay type: cell-based, Candida tropicalis; conditions: Candida tropicalis, ATCC200956, 24 h, read-out: GM MIC
From the text: as §1, §2

[4] = system: C. metapsilosis MUM 15.12; assay: MIC, CLSI M27 broth microdilution; assay type: cell-based, Candida metapsilosis; conditions: Lodderomyces metapsilosis, MUM15.12, 24 h, read-out: GM MIC
From the text: as §1, §2

C. auris CDC B11903 = assay: MIC, CLSI M27 broth microdilution; assay type: cell-based, Candida auris
From the text: as §1, §2

C. auris Ca 41 = assay: MIC, CLSI M27 broth microdilution; assay type: cell-based, Candida auris
From the text: as §1, §2

C. auris Ca 1 = assay: MIC, CLSI M27 broth microdilution; assay type: cell-based, Candida auris
From the text: as §1, §2

C. auris Ca 13 = assay: MIC, CLSI M27 broth microdilution; assay type: cell-based, Candida auris
From the text: as §1, §2

C. auris Ca 9 = assay: MIC, CLSI M27 broth microdilution; assay type: cell-based, Candida auris; conditions: Candidozyma auris, CA9, 24 h, read-out: GM MIC
From the text: as §1, §2

C. auris Ca 45 = assay: MIC, CLSI M27 broth microdilution; assay type: cell-based, Candida auris
From the text: as §1, §2

C. auris Ca 32 = assay: MIC, CLSI M27 broth microdilution; assay type: cell-based, Candida auris; conditions: Candidozyma auris, CA32, 24 h, read-out: GM MIC
From the text: as §1, §2

C. auris Ca 46 = assay: MIC, CLSI M27 broth microdilution; assay type: cell-based, Candida auris; conditions: Candidozyma auris, CA46, 24 h, read-out: GM MIC
From the text: as §1, §2

C. auris Ca 17 = assay: MIC, CLSI M27 broth microdilution; assay type: cell-based, Candida auris; conditions: Candidozyma auris, CA17, 24 h, read-out: GM MIC
From the text: as §1, §2

C. krusei ATCC 6258 = assay: MIC, CLSI M27 broth microdilution; assay type: cell-based, Candida krusei; conditions: Pichia kudriavzevii, ATCC6258, 24 h, read-out: GM MIC
From the text: as §1, §2

Candida spp. = assay: Screening of antifungal activity at 256 µg/mL against twenty strains; assay type: cell-based; conditions: screening at 256 µg/mL
From the text: as §1
Antifungal susceptibility testing was performed according to Clinical and Laboratory Standards Institute M27, 4th Edition (CLSI standard M27, 4th Edition). Some modifications were applied for evaluation of the antifungal activity of EOs and terpenes. Initially, a screening was carried out to determine the antifungal activity of the EOs and of commercial terpenes. Stock concentrations of EOs and terpenes were prepared at 512 µg/mL and an inoculum of 2.5 × 10^3 CFU/mL of each yeast was prepared in RPMI 1640-MOPS (Sigma- Aldrich St. Louis, MO, USA). Thereafter, 100 µL of each stock solution of EOs or terpenes was dispensed in 96-well microdilution plates (Corning®, Costar®, NY, USA) and 100 µL of each yeast inoculum was added. […] MICs were visually determined at the lowest concentration that produced visual inhibition compared to the growth control. […] The results were expressed as geometric means (GM) and ranges. As an antifungal susceptibility testing control, the activity of ITC and AMB against the reference strains C. krusei ATCC 6258 and C. parapsilosis ATCC 22019 was evaluated in all experiments following the CLSI standard M27, 4th Edition. […]

Cc1ccc(C(C)C)cc1O [Carvacrol, carvacrol]
Range MIC (C. lusitaniae MUM 17.08; C. lusitaniae MUM 17.08, EOs and terpenes): 128 to 256 µg/mL | MIC (C. lusitaniae MUM 17.08; Clavispora lusitaniae, MUM17.08, 24 h, read-out: GM MIC): 181 µg/mL (≈ 1200 µM) | Range MIC ([1]; C. parapsilosis Synlab 406, EOs and terpenes): 32 to 64 µg/mL | MIC ([1]; Lodderomyces parapsilosis, SYNLAB406, 24 h, read-out: GM MIC): 45.3 µg/mL (≈ 302 µM) | CC50 at 24 h (Cytotoxicity, MTT assay): 411 µg/mL (≈ 2730 µM) | MIC Range (C. auris): 63 to 250 µg/mL | MIC [2]: 128 µg/mL (≈ 852 µM) | MIC [3]: 128 µg/mL (≈ 852 µM) | MIC [4]: 128 µg/mL (≈ 852 µM) | Range MIC (C. auris CDC B11903; C. auris CDC B11903, EOs and terpenes): 64 to 128 µg/mL | MIC (C. auris CDC B11903; Candidozyma auris, CDCB11903, 24 h, read-out: GM MIC): 90.5 µg/mL (≈ 602 µM) | Range MIC (C. auris Ca 41; C. auris Ca 41, EOs and terpenes): 64 to 128 µg/mL | MIC (C. auris Ca 41; Candidozyma auris, CA41, 24 h, read-out: GM MIC): 90.5 µg/mL (≈ 602 µM) | Range MIC (C. auris Ca 1; C. auris Ca 1, EOs and terpenes): 128 to 256 µg/mL | MIC (C. auris Ca 1; Candidozyma auris, CA1, 24 h, read-out: GM MIC): 181 µg/mL (≈ 1200 µM) | Range MIC (C. auris Ca 13; C. auris Ca 13, EOs and terpenes): 128 to 256 µg/mL | MIC (C. auris Ca 13; Candidozyma auris, CA13, 24 h, read-out: GM MIC): 181 µg/mL (≈ 1200 µM) | MIC (C. auris Ca 9): 256 µg/mL (≈ 1700 µM) | Range MIC (C. auris Ca 45; C. auris Ca 45, EOs and terpenes): 64 to 128 µg/mL | MIC (C. auris Ca 45; Candidozyma auris, CA45, 24 h, read-out: GM MIC): 90.5 µg/mL (≈ 602 µM) | MIC (C. auris Ca 32): 64 µg/mL (≈ 426 µM) | MIC (C. auris Ca 46): 64 µg/mL (≈ 426 µM) | MIC (C. auris Ca 17): 128 µg/mL (≈ 852 µM) | MIC (C. krusei ATCC 6258): 256 µg/mL (≈ 1700 µM) | antifungal activity in screening (Candida spp.): active against all tested Candida spp.
